# Experimental data: patent publication US6979436B2, “Opioid metallopeptide compositions and methods” (Palatin Technologies, Inc., priority 1999, dated 2005)
# Non-standard residues stand in square brackets, D forms with d. No end group written: not given here. hTyr = N[C@@H](CCc1ccc(O)cc1)C(=O)O; hPhe = N[C@@H](CCc1ccccc1)C(=O)O; Phg = N[C@H](C(=O)O)c1ccccc1; Ava = NCCCCC(=O)O; βAla = NCCC(=O)O
# Columns and labels:
# [1] = target: δ receptors, mouse vas deferens (MVD) (Mus musculus, UniProt P32300); test: mouse vas deferens (MVD) in vitro functional assay; conditions: for MVD observed percent efficacy at 10 μM: value in brackets; for MVD functional activity class / EC50: mouse vas deferens; for EC50: read-out: In Vitro Functional Assay [ED50 in μM] MVD, rhenium-complexed peptides
# Sequence of δ receptors, mouse vas deferens (MVD) (P32300 whole entry): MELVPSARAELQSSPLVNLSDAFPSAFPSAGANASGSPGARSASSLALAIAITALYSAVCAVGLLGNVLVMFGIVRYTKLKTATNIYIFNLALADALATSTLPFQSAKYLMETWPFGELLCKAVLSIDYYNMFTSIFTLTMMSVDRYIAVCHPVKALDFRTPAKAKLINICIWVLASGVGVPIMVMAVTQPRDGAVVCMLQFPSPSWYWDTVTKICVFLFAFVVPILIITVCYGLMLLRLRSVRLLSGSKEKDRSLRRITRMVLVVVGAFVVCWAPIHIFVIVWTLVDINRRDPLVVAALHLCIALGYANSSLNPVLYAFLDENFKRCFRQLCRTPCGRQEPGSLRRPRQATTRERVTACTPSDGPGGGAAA
# [2] = tested on: μ receptors, guinea pig ileum (GPI); test: guinea pig ileum (GPI) in vitro functional assay; conditions: for EC50: read-out: In Vitro Functional Assay [ED50 in μM] GPI, rhenium-complexed peptides; for EC50 / GPI functional activity class: guinea pig ileum; for GPI observed percent efficacy at 10 μM: value in brackets
# κ opiate receptor = κ opiate receptor (Cavia porcellus, UniProt P41144); test: κ receptor binding assay, guinea-pig brain membrane, 3H-U69593 displacement; conditions: read-out: Receptor Binding Assay [Ki in μM] Kappa Receptor
# Sequence of κ opiate receptor (P41144 whole entry): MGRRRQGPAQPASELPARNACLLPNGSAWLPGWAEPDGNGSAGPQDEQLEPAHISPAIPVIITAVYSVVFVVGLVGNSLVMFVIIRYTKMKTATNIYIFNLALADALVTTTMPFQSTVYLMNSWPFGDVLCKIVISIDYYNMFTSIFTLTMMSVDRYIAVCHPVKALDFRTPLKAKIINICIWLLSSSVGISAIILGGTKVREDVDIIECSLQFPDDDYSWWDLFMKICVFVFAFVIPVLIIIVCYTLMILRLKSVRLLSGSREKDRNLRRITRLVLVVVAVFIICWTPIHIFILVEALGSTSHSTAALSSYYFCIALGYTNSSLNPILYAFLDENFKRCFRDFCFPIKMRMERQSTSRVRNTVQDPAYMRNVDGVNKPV
substance,measurement,setting,value
(p-OH)—C6H4(CH2)2—NH—CO—CH(NH2)—(CH2)2—CO-Gly-Phe-D-Cys-NH2,MVD observed percent efficacy at 10 μM,[1],9%
HTyr-β-Ala-Gly-Phe-Cys-NH2 ([hTyr][βAla]GFC-NH2; also: rhenium complex),MVD observed percent efficacy at 10 μM,[1],30%
HTyr-β-Ala-Gly-Phe-D-Cys-NH2,MVD observed percent efficacy at 10 μM,[1],11%
Leu-Enkephalin [reference compound],EC50,[2],0.246 µM
Lys-Tyr-Cys-OH,MVD observed percent efficacy at 10 μM,[1],41%
same,GPI observed percent efficacy at 10 μM,[2],34%
NH2(CH2)4—CO-Phe-Asp-Cys-HTyr-NH2 ([Ava]FDC[hTyr]-NH2; also: rhenium complex),MVD observed percent efficacy at 10 μM,[1],20%
Tyr-Ala-Cys-HPhe-NH2 (YAC[hPhe]-NH2; also: rhenium complex),MVD functional activity class,[1],WPA
same,GPI functional activity class,[2],WPA
Tyr-Ala-Cys-Phe-NH2 (YACF-NH2; also: rhenium complex),MVD functional activity class,[1],WPA
same,GPI functional activity class,[2],WPA
Tyr-Ala-Cys-Phg-NH2 (YAC[Phg]-NH2; also: rhenium complex),GPI functional activity class,[2],WPA
Tyr-Ala-Phe-Cys-OH (YAFC-OH; also: rhenium complex),MVD observed percent efficacy at 10 μM,[1],48%
same,GPI observed percent efficacy at 10 μM,[2],8%
Tyr-Cys-Gly-Cys-NH2 (YCGC-NH2; cysteine pairing not given here; also: rhenium complex),MVD observed percent efficacy at 10 μM,[1],34%
same,GPI observed percent efficacy at 10 μM,[2],14%
Tyr-Gly-Cys-HPhe-NH2 (YGC[hPhe]-NH2; also: rhenium complex),MVD functional activity class,[1],WPA
same,GPI functional activity class,[2],WPA
Tyr-Gly-Cys-Phg-NH2 (YGC[Phg]-NH2; also: rhenium complex),MVD functional activity class,[1],WPA
same,GPI functional activity class,[2],WPA
Tyr-Lys-Cys-OH,MVD observed percent efficacy at 10 μM,[1],48%
same,GPI observed percent efficacy at 10 μM,[2],41%
Tyr-Val-Cys-Phe-NH2 (YVCF-NH2; also: rhenium complex),MVD [ED30],[1]; ED30 instead of ED50,1.42 ± 0.21 µM
Tyr-[dK]-Cys-OH,MVD observed percent efficacy at 10 μM,[1],9%
same,GPI observed percent efficacy at 10 μM,[2],57%
Tyr-β-Ala-Gly-Phe-Cys-NH2 (Y[βAla]GFC-NH2; also: rhenium complex),MVD observed percent efficacy at 10 μM,[1],22%
YAGFC [Tyr-Ala-Gly-Phe-Cys-NH2],EC50,[1],> 10 µM
same,EC50,[2],> 10 µM
YCGFC [Tyr-Cys-Gly-Phe-Cys-NH2],Ki,κ opiate receptor,2.1 µM
same,EC50,[2],0.612 µM
YC[dF]G-NH2,EC50,[1],> 10 µM
same,EC50,[2],> 10 µM
YGCF [Tyr-Gly-Cys-Phe-NH2],EC50,[1],1.35 µM
same,EC50,[2],> 10 µM
YGGCF [Tyr-Gly-Gly-Cys-Phe-NH2],EC50,[1],> 10 µM
same,EC50,[2],> 10 µM
YG[dF]C-NH2,EC50,[1],> 10 µM
same,EC50,[2],> 10 µM
Y[dA]CF-NH2,MVD observed percent efficacy at 10 μM,[1],16%
same,GPI [ED40],[2]; ED40 instead of ED50,3.06 ± 0.29 µM
Y[dK]CF,EC50,[2],3.03 ± 0.43 µM
Y[βAla]FGC-OH,MVD observed percent efficacy at 10 μM,[1],17%
same,GPI observed percent efficacy at 10 μM,[2],51%
Y[βAla]GF[dC]-NH2,MVD observed percent efficacy at 10 μM,[1],30%
[dK]-Tyr-Cys-OH,MVD observed percent efficacy at 10 μM,[1],18%
same,GPI observed percent efficacy at 10 μM,[2],28%
